Experiments:
[1] = system: Human monocytic cell line THP-1; experiment: LPS-stimulated cytokine secretion by ELISA in THP-1 cells; format: cell-based; conditions: THP-1, overnight increasing doses of FK866, LPS 6 h
Experimental: (§1) Human monocytic cell line THP-1 was cultured overnight in the presence of graded doses of nicotinic acid (NA), a precursor of NAD, and then stimulated with lipopolysaccharide (LPS) from gram-negative bacteria for 2 h. The cell supernatant was tested for tumor necrosis factor (TNF) content by ELISA and the intracellular pool of NAD was measured by an enzymatic assay.
(§2) Human monocytic cell line THP-1, human peripheral blood mononuclear cells (PBMC), human monocyte-derived dendritic cells, or mouse peritoneal macrophages were isolated and cultured overnight with increasing doses of FK866, and then stimulated with LPS for 6 h. The culture supernatants were tested for TNF and IL-6 content by ELISA
THP-1 cells were incubated in the presence of 10 nM FK866 and graded doses of NMN. Cells were further stimulated with LPS and intracellular NAD levels and TNFα secretion were determined using standard assays.
as §1, with “This example illustrates the direct relationship between NAD levels in cells and pro-inflammatory cytokine secretion. Human” for “Human”, “of” for “of graded doses of”, “acid,” for “acid (NA),”
as §2, with “This example describes the inhibition of pro-inflammatory cytokines production by the competitive small molecular weight compound inhibitor of NMPRT, ((E)-N-[4-(1-benzoylpiperidin-4-yl)butyl]-3-(pyridin-3-yl)acrylamide, designated FK866). Human” for “Human”, “ELISA.” for “ELISA”
This example illustrates that NAMPT is the only molecular target of FK866. […]

RAW264.7 cell line [2] = experiment: Intracellular NAD by enzymatic assay in RAW264.7 cells; format: cell-based, mouse; conditions: RAW264.7, overnight increasing doses of FK866, LPS 2 h
Experimental: (§3) (A) The mouse macrophage cell line RAW264.7 was cultured overnight with increasing doses of FK866, and then stimulated with LPS for 2 h. The culture supernatants were tested for TNF content by ELISA and intracellular NAD levels were measured by an enzymatic assay.
(§4) (B) RAW264.7 cells were cultured overnight in the presence of FK866 and the intracellular pool of NAD was restored by co-incubation of the cells with nicotinic acid (NA). Cells were then stimulated with LPS for 2 h and the culture supernatant was tested for TNF content by ELISA.
(C) RAW264.7 cells were cultured overnight in the presence of FK866 and NAD levels were maintained by culturing the cells in the presence of extracellular NAD. Cells were then stimulated with LPS for 2 h and the culture supernatant was tested for TNF content by ELISA.
as §3, with “This example illustrates the correlation between proinflammatory cytokine secretion and NAD levels in the cell.” for “(A)”
as §4, with “In another experiment,” for “(B)”, “nicotinic acid. Nicotinic” for “nicotinic”, “is a precursor of NAD, but its transformation into NAD is not dependent upon NMPRT and is thus not inhibited by FK866.” for “(NA).”
In another experiment, RAW264.7 cells were cultured overnight in the presence of FK866 and NAD levels were maintained by culturing the cells in the presence: of extra-cellular NAD. Cells were then stimulated with LPS for 2 h and the culture supernatant was tested for TNF content by ELISA.

RAW264.7 cell line [3] = experiment: TNFα mRNA levels by RT-PCR in RAW264.7 cells; format: cell-based, mouse; conditions: RAW 264.7, LPS in the presence of FK866, RT-PCR
Experimental: The murine RAW264.7 cell line was stimulated with LPS in the presence of FK866. TNF protein concentrations were determined by ELISA (above panel) while mRNA levels were determined by RT-PCR (below panel).
This example illustrates that FK866 inhibits TNFα secretion at a posttranscriptional level. The murine RAW 264.7 cell line was incubated in the presence of graded doses of FK866, stimulated with microbial products, and levels of TNFα released in the supernatant evaluated by ELISA.

[4] = system: mouse peritoneal macrophages; experiment: LPS-stimulated TNF and IL-6 secretion by ELISA in peritoneal macrophages; format: cell-based; conditions: overnight increasing doses of FK866, LPS 6 h
Experimental: as §2
as §2, with “This example describes the inhibition of pro-inflammatory cytokines production by the competitive small molecular weight compound inhibitor of NMPRT, ((E)-N-[4-(1-benzoylpiperidin-4-yl)butyl]-3-(pyridin-3-yl)acrylamide, designated FK866). Human” for “Human”, “ELISA.” for “ELISA”

[5] = system: human peripheral blood mononuclear cells (PBMC); experiment: LPS-stimulated TNF and IL-6 secretion by ELISA in PBMC; format: cell-based; conditions: overnight increasing doses of FK866, LPS 6 h
Experimental: as §2
as §2, with “This example describes the inhibition of pro-inflammatory cytokines production by the competitive small molecular weight compound inhibitor of NMPRT, ((E)-N-[4-(1-benzoylpiperidin-4-yl)butyl]-3-(pyridin-3-yl)acrylamide, designated FK866). Human” for “Human”, “ELISA.” for “ELISA”

[6] = system: human monocyte-derived dendritic cells; experiment: Annexin-V and propidium iodide survival assay in dendritic cells; format: cell-based; conditions: overnight increasing doses of FK866, LPS 6 h, vs untreated cells
Experimental: (B) Human monocyte-derived dendritic cells were isolated and cultured overnight with increasing doses of FK866, and then stimulated with LPS for 6 h. At the end of the culture, the survival of cells was measured by Annexin-V and propidium iodide staining.
In another experiment, human monocyte-derived dendritic cells were isolated and cultured overnight with increasing doses of FK866, and then stimulated with LPS for 6 h.

[7] = system: human monocyte-derived dendritic cells; experiment: LPS-stimulated cytokine secretion by ELISA in dendritic cells; format: cell-based
Experimental: as §2
Human dendritic cells (mean and SD from 5 different donors) were incubated with 20 nM FK866 before stimulation with LPS or LPS+IFNγ. Pro-inflammatory cytokine levels in the supernatant were measured by ELISA after 16 h of culture.
as §2, with “This example describes the inhibition of pro-inflammatory cytokines production by the competitive small molecular weight compound inhibitor of NMPRT, ((E)-N-[4-(1-benzoylpiperidin-4-yl)butyl]-3-(pyridin-3-yl)acrylamide, designated FK866). Human” for “Human”, “ELISA.” for “ELISA”
This example describes the inhibition of other pro-inflammatory cytokine production, in addition to TNFα, IL-1β and IL-6, by FK866. Human dendritic cells from 5 different donors were cultured with FK866 before stimulation with LPS or LPS+IFNγ. The culture supernatants were tested for TNFα, IL-12 (p40 and p70), and IL-23 content by ELISA.

[8] = human dendritic cells from 5 donors, 20 nM FK866, LPS or LPS+IFNγ, 16 h

SMILES: O=C(/C=C/c1cccnc1)NCCCCC1CCN(C(=O)c2ccccc2)CC1 [FK866, (E)-N-[4-(1-benzoylpiperidin-4-yl)butyl]-3-(pyridine-3-yl)-acrylamide]
- cytokine secretion (TNF and IL-6) [1]: inhibited cytokine secretion in a dose-dependent fashion
- intracellular NAD levels (RAW264.7 cell line [2]): inhibition of intracellular NAD levels
- TNFα mRNA levels (RAW264.7 cell line [3]): did not significantly affect
- cytokine secretion (TNF and IL-6) [4]: inhibited cytokine secretion in a dose-dependent fashion
- cytokine secretion (TNF and IL-6) [5]: inhibited cytokine secretion in a dose-dependent fashion
- survival of cells (Annexin-V and propidium iodide staining) [6]: no difference in survival
- IL-12 (p40 and p70) production [7, 8]: inhibited
- IL-23 production [7, 8]: inhibited
- TNFα production [7, 8]: inhibited
- cytokine secretion (TNF and IL-6) ([7]; human monocyte-derived dendritic cells, overnight increasing doses of FK866, LPS 6 h): inhibited cytokine secretion in a dose-dependent fashion
